Target: T1, phosphopantetheine adenylyltransferase (PPAT, CoaD) (Escherichia coli, UniProt P0A6I6)
T1 construct: recombinant full-length enzyme expressed from coaD plasmid and purified; hexamer
Test: capping of […]-labelled 5-mer pppRNA with pPant, denaturing PAGE
Type: biochemical
Details: read-out: half-maximal inhibition

T1 sequence (P0A6I6 whole entry): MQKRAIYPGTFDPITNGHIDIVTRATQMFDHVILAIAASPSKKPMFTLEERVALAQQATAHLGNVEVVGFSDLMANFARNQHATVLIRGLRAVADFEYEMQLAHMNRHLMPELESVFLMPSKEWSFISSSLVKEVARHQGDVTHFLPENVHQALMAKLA

IC50: ~5 µM
Structure (SMILES): Nc1ncnc2c1ncn2[C@@H]1O[C@H](COP(=O)(O)OP(=O)(O)OP(=O)(O)O)[C@@H](O)[C@H]1O [ATP]

— article PMC10761072, “Post-transcriptional capping generates coenzyme A-linked RNA” (RNA Biology, 2023)
